From US8242120B2 (priority 2007, dated 2012)
Entries after “also recorded” stand apart in the source; their conditions may differ.

Tests used:
[1] = test system: Venezuelan equine encephalitis virus (TC-83 vaccine strain); design: species or system C3H/HeN mice; settings: in vivo
[2] = test system: Avian influenza A strain H5N1 virus; assay type: cell-based
[3] = test system: Venezuelan Equine Encephalitis (VEE); assay type: cell-based, Venezuelan equine encephalitis virus
[4] = mouse, in vivo
[5] = test system: CTP synthase; settings: cited from earlier work
[6] = test system: flu A (DUCK)-H5N1 virus; assay type: cell-based, Avian influenza A H5N1

Nc1ccn([C@@H]2C[C@H](CO)[C@@H](O)[C@H]2O)c(=O)n1 [(−) carbodine, (1R,2S,3R,4R)-1-[2,3-Dihydroxy-4-(hydroxymethyl)-cyclopentan-1-yl]cytosine]
activity against vaccine strain (TC-83) of VEEV in C3H/HeN mouse model [1]: active | all disease signs measured ([1]; mouse): effective in significantly improving | mean day to death ([1]; mouse): efficacious in significantly improving; also recorded: effective in significantly improving | reduction in brain virus titer ([1]; mouse): 1 log | survival ([1]; mouse): efficacious in significantly improving; also recorded: effective in significantly improving | weight gain ([1]; mouse): efficacious in significantly improving; also recorded: effective in significantly improving | activity as an inhibitor of Avian Influenza A strain H5N1 [2]: good activity | activity against VEE in vitro [3]: good activity | weight loss in sham infected mice [4]: weight loss was observed | inhibition of CTP synthase that converts UTP to CTP [5]: known inhibitor | activity against H5N1 in vitro [6]: good activity
